# Results as given in patent publication US20070015723A1, “Antiviral oligonucleotides having a conserved G4 core sequence” (priority 1992, published 2007).
# Strand notation (5' to 3'): a small letter for the sugar, then the base; units joined by * are phosphorothioate-linked, units joined directly phosphodiester-linked; [ ] holds rarer units or linkages, { } end groups; capitals alone tell only the bases. d = 2'-deoxy (DNA)
# Assays:
# HSV-1 (KOS) = experiment: HSV-1 infection ELISA assay; format: cell-based; details: HSV-1 (KOS strain); Table 9; some in duplicate
# [1] = target: T1, human type II phospholipase A2 (Homo sapiens, UniProt P14555); experiment: Human type II phospholipase A2 enzyme assay (3H-oleic acid labelled E. coli substrate); format: biochemical; details: 1 μM; Table 5, two separate experiments
# T1 sequence (P14555 21-144): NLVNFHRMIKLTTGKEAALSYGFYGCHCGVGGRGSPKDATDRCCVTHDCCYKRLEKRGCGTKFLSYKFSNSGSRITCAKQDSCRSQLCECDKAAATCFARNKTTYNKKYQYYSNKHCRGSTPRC
Substance,EC50 (HSV-1 (KOS)) [nM],% Inhibition (1 μM) [1] [%]
"ISIS 4111: CCTGGATGATGCTGGGGTAC, phosphorothioate, SEQ ID NO 131 (CCTGGATGATGCTGGGGTAC; antisense; all phosphorothioate, sugars by position and methylation of C not given here)",600,–
"ISIS 4112: GACTGGGGCGAGGTAGGGGT, phosphorothioate, SEQ ID NO 132 (GACTGGGGCGAGGTAGGGGT; antisense; all phosphorothioate, sugars by position and methylation of C not given here)",300,–
"ISIS 4341: TGGAGACCGGGGTTGGGGAA, phosphorothioate, SEQ ID NO 127 (TGGAGACCGGGGTTGGGGAA; antisense; all phosphorothioate, sugars by position and methylation of C not given here)",200,–
"ISIS 4342: TTGGAGACCGGGGTTGGGGA, phosphorothioate, SEQ ID NO 128 (TTGGAGACCGGGGTTGGGGA; antisense; all phosphorothioate, sugars by position and methylation of C not given here)",200,–
"ISIS 4346: GAGGTGGGCTTCGGTGGTGA, phosphorothioate, SEQ ID NO 123 (GAGGTGGGCTTCGGTGGTGA; antisense; all phosphorothioate, sugars by position and methylation of C not given here)",500,–
"ISIS 4348: GGGTTGGAGACCGGGGTTGG, phosphorothioate, SEQ ID NO 125 (GGGTTGGAGACCGGGGTTGG; all phosphorothioate, sugars by position and methylation of C not given here)",400,–
"ISIS 4349: GGTTGGAGACCGGGGTTGGG, phosphorothioate, SEQ ID NO 126 (GGTTGGAGACCGGGGTTGGG; antisense; all phosphorothioate, sugars by position and methylation of C not given here)",250,–
"ISIS 4350: GACGGTCAAGGGGAGGGTTGG, phosphorothioate, SEQ ID NO 129 (GACGGTCAAGGGGAGGGTTGG; all phosphorothioate, sugars by position and methylation of C not given here)",250,–
"ISIS 4393: GGGGTTGGGGAATGAATCCC, phosphorothioate, SEQ ID NO 124 (GGGGTTGGGGAATGAATCCC; antisense; all phosphorothioate, sugars by position and methylation of C not given here)",200,–
"ISIS 4399: GTCCCGACTGGGGCGAGGAT, phosphorothioate, SEQ ID NO 133 (GTCCCGACTGGGGCGAGGAT; antisense; all phosphorothioate, sugars by position and methylation of C not given here)",250,–
"ISIS 4956: GGG CGG GTA TAG, SEQ ID NO 105 (dG*dG*dG*dC*dG*dG*dG*dT*dA*dT*dA*dG; aptamer)",–,92.0
"ISIS 4957: GGG TGG ATA TAG, SEQ ID NO 106 (dG*dG*dG*dT*dG*dG*dA*dT*dA*dT*dA*dG; aptamer)",–,81.9
"ISIS 4962: GGG TGG GTA T, SEQ ID NO 108 (dG*dG*dG*dT*dG*dG*dG*dT*dA*dT)",–,36.3
"TAG AAG GGC TCC: truncated version of ISIS 3196, SEQ ID NO 101 (dT*dA*dG*dA*dA*dG*dG*dG*dC*dT*dC*dC)",–,0
"TGG GTA TAG AAG GGC TCC: truncated version of ISIS 3196, SEQ ID NO 99 (dT*dG*dG*dG*dT*dA*dT*dA*dG*dA*dA*dG*dG*dG*dC*dT*dC*dC)",–,84.6
"TGG GTA TAG AAG GGC: truncated version of ISIS 3196, SEQ ID NO 102 (dT*dG*dG*dG*dT*dA*dT*dA*dG*dA*dA*dG*dG*dG*dC)",–,33.5
